Measured values from the NIST ThermoML archive (doi:10.1021/acs.jced.8b00663).
± gives the expanded uncertainty stated by the source.

Key:
[1] = Crystal; DTA
[2] = Molar enthalpy of transition or fusion; settings: Crystal; DSC

Normal melting temperature [1]: 149.00 ± 1.1 °C
Molar enthalpy of transition or fusion [2]: 37.4 ± 1.7 kJ/mol
Compound: CCOC(=O)C1=C[C@]2(CC)CCCN3CCc4c(n1c1ccccc41)[C@@H]32 [vinpocetine]
